Laboratory results reported in patent US20220081444A1, “6,7-DIHYDRO-4H-PYRAZOLO[1,5-A]PYRAZINE INDOLE-2-CARBOXAMIDES ACTIVE AGAINST THE HEPATITIS B VIRUS (HBV)” (AiCuris GmbH & Co. KG, priority 2018, published 2022).
Structures can show the parent of a compound that is named as a salt.

The compounds below were run on HBV. Settings: Hepatitis B virus, HePAD38, 144 h, read-out: Cell Activity (EC50).
`O=C(c1cc2ccccc2[nH]1)N1CCn2nc(NCC3CCCOC3)cc2C1` (centres unmarked) [Example 55, 5-(1H-indole-2-carbonyl)-N-[(oxan-3-yl)methyl]-4H,5H,6H,7H-pyrazolo[1,5-a]pyrazin-2-amine] gave an EC50 of less than 1000 nM.
Work on `CCc1cccc2[nH]c(C(=O)N3CCn4nc(NCC5CCOC5)cc4C3)cc12` (centres unmarked) [Example 17, 5-(4-ethyl-1H-indole-2-carbonyl)-N-[(oxolan-3-yl)methyl]-4H,5H,6H,7H-pyrazolo[1,5-a]pyrazin-2-amine] yielded an EC50 of less than 1000 nM.
In the case of `CC(C)(C)OC(=O)N1CC(C(=O)Nc2cc3n(n2)CCN(C(=O)c2cc4ccccc4[nH]2)C3)C1` [Example 7, tert-butyl 3-{[5-(1H-indole-2-carbonyl)-4H,5H,6H,7H-pyrazolo[1,5-a]pyrazin-2-yl]carbamoyl}azetidine-1-carboxylate], the EC50 is reported as less than 1000 nM.
`Nc1cc2n(n1)CCN(C(=O)c1cc3ccccc3[nH]1)C2` [Example 34, 5-(1H-indole-2-carbonyl)-4H,5H, 6H,7H-pyrazolo[1,5-a]pyrazin-2-amine] was tested, and the EC50 was less than 1000 nM.
`O=C(c1cc2ccccc2[nH]1)N1CCn2nc(NC3(CO)CC3)cc2C1` [Example 92, (1-{[5-(1H-indole-2-carbonyl)-4H,5H,6H,7H-pyrazolo[1,5-a]pyrazin-2-yl]amino}cyclopropyl)methanol] gave an EC50 of less than 1000 nM.
Compound `O=C(c1cc2ccccc2[nH]1)N1CCn2nc(NCC3(O)CC(F)(F)C3)cc2C1` [Example 83, 3,3-difluoro-1-({[5-(1H-indole-2-carbonyl)-4H,5H,6H,7H-pyrazolo[1,5-a]pyrazin-2-yl]amino}methyl)cyclobutan-1-ol] has an EC50 of less than 1000 nM.
In the case of `O=C(c1cc2ccccc2[nH]1)N1CCn2nc(N[C@H]3CC[C@H](O)CC3)cc2C1` [Example 2, (1r,4r)-4-{[5-(1H-indole-2-carbonyl)-4H,5H,6H,7H-pyrazolo[1,5-a]pyrazin-2-yl]amino}cyclohexan-1-ol], the EC50 is reported as less than 1000 nM.
`CN1CC(C(=O)Nc2cc3n(n2)CCN(C(=O)c2cc4ccccc4[nH]2)C3)C1` [Example 70, N-[5-(1H-indole-2-carbonyl)-4H,5H,6H,7H-pyrazolo[1,5-a]pyrazin-2-yl]-1-methylazetidine-3-carboxamide] was tested, and the EC50 was 1000 to 10000 nM.
`NC(=O)N1CCC(C(=O)Nc2cc3n(n2)CCN(C(=O)c2cc4ccccc4[nH]2)C3)CC1` [Example 65, N4-[5-(1H-indole-2-carbonyl)-4H,5H,6H,7H-pyrazolo[1,5-a]pyrazin-2-yl]piperidine-1,4-dicarboxamide] showed an EC50 of less than 1000 nM.
For `O=C(c1cc2ccccc2[nH]1)N1CCn2nc(N[C@H]3CCC[C@@H](O)C3)cc2C1` [Example 77, (1R,3S)-3-{[5-(1H-indole-2-carbonyl)-4H,5H,6H,7H-pyrazolo[1,5-a]pyrazin-2-yl]amino}cyclohexan-1-ol], the EC50 was less than 1000 nM.
`CS(=O)(=O)Nc1cc2n(n1)CCN(C(=O)c1cc3ccccc3[nH]1)C2` [Example 8, N-[5-(1H-indole-2-carbonyl)-4H,5H,6H,7H-pyrazolo[1,5-a]pyrazin-2-yl]methanesulfonamide] gave an EC50 of less than 1000 nM.
With `O=C(c1cc2c(Cl)c(F)ccc2[nH]1)N1CCn2nc(NS(=O)(=O)C3CC3)cc2C1` [Example 36, N-[5-(4-chloro-5-fluoro-1H-indole-2-carbonyl)-4H,5H,6H,7H-pyrazolo[1,5-a]pyrazin-2-yl]cyclopropanesulfonamide] the EC50 was less than 1000 nM.
Compound `O=C(c1cc2ccccc2[nH]1)N1CCn2nc(NS(=O)(=O)c3cccnc3)cc2C1` [Example 50, N-[5-(1H-indole-2-carbonyl)-4H,5H,6H,7H-pyrazolo[1,5-a]pyrazin-2-yl]pyridine-3-sulfonamide] has an EC50 of less than 1000 nM.
`O=C(c1cc2c(F)cc(F)cc2[nH]1)N1CCn2nc(NS(=O)(=O)C3CC3)cc2C1` [Example 35, N-[5-(4,6-difluoro-1H-indole-2-carbonyl)-4H,5H,6H,7H-pyrazolo[1,5-a]pyrazin-2-yl]cyclopropanesulfonamide] showed an EC50 of less than 1000 nM.
`O=C(c1cc2ccccc2[nH]1)N1CCn2nc(NS(=O)(=O)C3CC3)cc2C1` [Example 5, N-[5-(1H-indole-2-carbonyl)-4H,5H,6H,7H-pyrazolo[1,5-a]pyrazin-2-yl]cyclopropanesulfonamide] was tested, and the EC50 was less than 1000 nM.
With `Cn1cc(S(=O)(=O)Nc2cc3n(n2)CCN(C(=O)c2cc4ccccc4[nH]2)C3)cn1` [Example 49, N-[5-(1H-indole-2-carbonyl)-4H,5H,6H,7H-pyrazolo[1,5-a]pyrazin-2-yl]-1-methyl-1H-pyrazole-4-sulfonamide] the EC50 was less than 1000 nM.
Compound `Cc1noc(C)c1S(=O)(=O)Nc1cc2n(n1)CCN(C(=O)c1cc3ccccc3[nH]1)C2` [Example 46, N-[5-(1H-indole-2-carbonyl)-4H,5H,6H,7H-pyrazolo[1,5-a]pyrazin-2-yl]-3,5-dimethyl-1,2-oxazole-4-sulfonamide] has an EC50 of less than 1000 nM.
`CC(=O)Nc1cc2n(n1)CCN(C(=O)c1cc3ccccc3[nH]1)C2` [Example 14, N-[5-(1H-indole-2-carbonyl)-4H,5H,6H,7H-pyrazolo[1,5-a]pyrazin-2-yl]acetamide] gave an EC50 of less than 1000 nM.
`O=C(c1cc2c(F)cc(F)cc2[nH]1)N1CCn2nc(NCC3CCOC3)cc2C1` (centres unmarked) [Example 28, 5-(4,6-difluoro-1H-indole-2-carbonyl)-N-[(oxolan-3-yl)methyl]-4H,5H,6H,7H-pyrazolo[1,5-a]pyrazin-2-amine] was tested, and the EC50 was less than 1000 nM.
For `O=C(Nc1cc2n(n1)CCN(C(=O)c1cc3ccccc3[nH]1)C2)C1CCN(CC(F)(F)F)CC1` [Example 63, N-[5-(1H-indole-2-carbonyl)-4H,5H,6H,7H-pyrazolo[1,5-a]pyrazin-2-yl]-1-(2,2,2-trifluoroethyl)piperidine-4-carboxamide], the EC50 was less than 1000 nM.
For `O=C(Nc1cc2n(n1)CCN(C(=O)c1cc3ccccc3[nH]1)C2)C1CCN(C2CCOCC2)CC1` [Example 69, N-[5-(1H-indole-2-carbonyl)-4H,5H,6H,7H-pyrazolo[1,5-a]pyrazin-2-yl]-1-(oxan-4-yl)piperidine-4-carboxamide], the EC50 was less than 1000 nM.
Compound `O=C(c1cc2ccccc2[nH]1)N1CCn2nc(NC3(c4ccccc4)CC3)cc2C1` [Example 84, 5-(1H-indole-2-carbonyl)-N-(1-phenylcyclopropyl)-4H,5H,6H,7H-pyrazolo[1,5-a]pyrazin-2-amine] has an EC50 of less than 1000 nM.
`O=C(Nc1cc2n(n1)CCN(C(=O)c1cc3c(Cl)cc(F)cc3[nH]1)C2)C1CCOC1` (centres unmarked) [Example 21, N-[5-(4-chloro-6-fluoro-1H-indole-2-carbonyl)-4H,5H,6H,7H-pyrazolo[1,5-a]pyrazin-2-yl]oxolane-3-carboxamide] gave an EC50 of less than 1000 nM.
In the case of `CCc1cccc2[nH]c(C(=O)N3CCn4nc(NCC5(O)CCC5)cc4C3)cc12` [Example 93, 1-({[5-(4-ethyl-1H-indole-2-carbonyl)-4H,5H,6H,7H-pyrazolo[1,5-a]pyrazin-2-yl]amino}methyl)cyclobutan-1-ol], the EC50 is reported as less than 1000 nM.
Compound `O=C(Nc1cc2n(n1)CCN(C(=O)c1cc3ccccc3[nH]1)C2)C1CCNCC1` [Example 41, N-[5-(1H-indole-2-carbonyl)-4H,5H,6H,7H-pyrazolo[1,5-a]pyrazin-2-yl]piperidine-4-carboxamide Hydrochloride] has an EC50 of less than 1000 nM.
Compound `O=C(Nc1cc2n(n1)CCN(C(=O)c1cc3ccccc3[nH]1)C2)C1CCNCC1F` (centres unmarked) [Example 85, 3-fluoro-N-[5-(1H-indole-2-carbonyl)-4H,5H,6H,7H-pyrazolo[1,5-a]pyrazin-2-yl]piperidine-4-carboxamide Trihydrochloride] has an EC50 of less than 1000 nM.
